Reference: PMC11249824 (Clinical and Translational Science, 2024)
Marks after values point to notes of the source that are not given here. Each block holds one compound with its values, some of them ahead of it.

Experiments:
Safety and tolerability = format: in vivo, healthy male subjects; conditions: for Abdominal pain, number of adverse events / Abdominal pain, number of subjects / Diarrhea, number of adverse events / Diarrhea, number of subjects / Headache, number of adverse events / Headache, number of subjects / Nausea, number of adverse events / Nausea, number of subjects / Number of different TEAEs / Number of subjects with at least one TEAE / Somnolence, number of adverse events / Somnolence, number of subjects / Total number of TEAEs: N = 16
ACKR3/CXCR7 = conditions: cited from earlier work
[1] = format: in vivo, healthy male subjects
[2] = cited from earlier work
[3] = cited from earlier work; remark: listed apart in the source
CYP3A4 = conditions: in vitro, preclinical observation; cited from earlier work
[4] = attributed to sequestration by β‐cyclodextrin; cited from earlier work
[5] = Treatment A (ACT‐1004‐1239 alone)
[6] = Treatment B2 (ACT‐1004‐1239 + itraconazole)
[7] = Treatment A: single oral 10 mg ACT‐1004‐1239 alone, fed, geometric mean (95% CI), N = 16
[8] = up to and including a dose of 200 mg

- AUC0−t [1, 7]: 300 (257, 352) ng * h/mL
- Cmax [1, 7]: 25.6 (21.1, 31.0) ng/mL
- AUC0−inf ([1]; Treatment A: single oral 10 mg ACT‐1004‐1239 alone, fed, geometric mean (95% CI), n = 10): 326 (279, 380) ^a ng * h/mL
- t max ([1]; Treatment A: single oral 10 mg ACT‐1004‐1239 alone, fed, median (range), N = 16): 2.00 (0.5, 6.0) h
- median of differences in t max (90% CI) ([1]; Treatment B2 (with itraconazole) vs Treatment A (alone), Hodges‐Lehmann estimate): 30 min
- increase of exposure to ACT‐1004‐1239 with itraconazole versus alone ([1]; concomitant multiple doses 200 mg itraconazole (CYP3A4 inhibition)): up to 2.9 fold
Structure (SMILES): O=C(N[C@H]1CCN(CC2CC2)C[C@@H]1C(=O)NC1(c2ncccn2)CC1)c1cc(-c2ccc(F)cc2F)on1 [ACT‐1004‐1239]
- Abdominal pain, number of adverse events (Safety and tolerability; [5]): 0 nAEs
- Abdominal pain, number of subjects (Safety and tolerability; [5]): 0 n (%)
- Diarrhea, number of adverse events (Safety and tolerability; [5]): 0 nAEs
- Diarrhea, number of subjects (Safety and tolerability; [5]): 0 n (%)
- Headache, number of adverse events (Safety and tolerability; [5]): 2 nAEs
- Headache, number of subjects (Safety and tolerability; [5]): 1 (6.3) n (%)
- Nausea, number of adverse events (Safety and tolerability; [5]): 2 nAEs
- Nausea, number of subjects (Safety and tolerability; [5]): 2 (12.5) n (%)
- Number of different TEAEs (Safety and tolerability; [5]): 3 nAEs
- Number of subjects with at least one TEAE (Safety and tolerability; [5]): 3 (18.8) n (%)
- Somnolence, number of adverse events (Safety and tolerability; [5]): 1 nAEs
- Somnolence, number of subjects (Safety and tolerability; [5]): 1 (6.3) n (%)
- Total number of TEAEs (Safety and tolerability; [5]): 5 nAEs
- Abdominal pain, number of adverse events (Safety and tolerability; [6]): 1 nAEs
- Abdominal pain, number of subjects (Safety and tolerability; [6]): 1 (6.3) n (%)
- Diarrhea, number of adverse events (Safety and tolerability; [6]): 1 nAEs
- Diarrhea, number of subjects (Safety and tolerability; [6]): 1 (6.3) n (%)
- Headache, number of adverse events (Safety and tolerability; [6]): 1 nAEs
- Headache, number of subjects (Safety and tolerability; [6]): 1 (6.3) n (%)
- Nausea, number of adverse events (Safety and tolerability; [6]): 0 nAEs
- Nausea, number of subjects (Safety and tolerability; [6]): 0 n (%)
- Number of different TEAEs (Safety and tolerability; [6]): 3 nAEs
- Number of subjects with at least one TEAE (Safety and tolerability; [6]): 3 (18.8) n (%)
- Somnolence, number of adverse events (Safety and tolerability; [6]): 0 nAEs
- Somnolence, number of subjects (Safety and tolerability; [6]): 0 n (%)
- Total number of TEAEs (Safety and tolerability; [6]): 3 nAEs
- tolerability (Safety and tolerability; all treatments, 10 mg ACT‐1004‐1239 in absence and presence of itraconazole): well‐tolerated
- overall incidence of subjects with TEAEs (Safety and tolerability; in each treatment (A and B2)): 18.8%
- CXCL12 plasma concentration (target engagement) (ACKR3/CXCR7): dose‐dependent increase
- effect of food on exposure [2]: no effect of food
- dose dependence of exposure ([2]; dose range 1–200 mg): dose‐proportional
- absolute bioavailability ([2]; healthy subjects): 53%
- volume of distribution ([2]; healthy subjects): 183 L
- QTc liability [2, 8]: without QTc liability
- safety and tolerability [2, 8]: safe and well‐tolerated
- contribution of elimination via M1 to drug's elimination ([3]; humans, M1 plus A1 and A2): approximately 44%
- unchanged drug recovered in excreta ([3]; oral 14C‐labeled ACT‐1004‐1239): 15%
- dependency of metabolism on CYP3A4 (CYP3A4): 94%

Structure (SMILES): O=C(Nc1ccc(OC(F)(F)Cl)cc1)c1cnc(N2CC[C@@H](O)C2)c(-c2ccn[nH]2)c1 [asciminib]
- decrease of exposure when given concomitantly with an itraconazole solution [4]: approximately 50%
